Assay results from patent publication US9833497B2, “Human originated EGF domain proteins and use of the same” (CHENGDU SOURCEBIO LIMITED-LIABILITY COMPANY, priority 2013, dated 2017).

Key:
Type in all cases: cell-based
[1] = tested on: Proteus mirabilis; experiment: MIC against Gram-negative bacteria: Proteus mirabilis
Outline: (§1)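 Purified recombinant human EGF domain proteins are tested by broth dilution in LB against a 5×10^5 CFU/mL inoculum, with two-fold serial dilutions run in triplicate. Plates are incubated at 37° C with shaking, and the MIC is read as the lowest protein concentration without growth.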

[2] = tested on: Aeromonas hydrophila; experiment: MIC against Gram-negative bacteria: Aeromonas hydrophila
Outline: as §1

[3] = tested on: Serratia marcescens; experiment: MIC against Gram-negative bacteria: Serratia marcescens
Outline: as §1

[4] = tested on: E. coli DH5α; experiment: Antibacterial activity: MIC and growth curve against E. coli DH5α in 96-well plate; conditions: minimal inhibitory concentration against E. coli DH5α; 96-well plate, 5×10^5 CFU/mL, 37° C., judged after 8 h
Outline: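 Log-phase DH5α (OD600 about 0.5, 37° C, 185 rpm in LB) was pelleted, resuspended in fresh LB and seeded at 5×10^5 CFU/mL with recombinant protein at 50, 25 and 12.5 μg/mL (two-fold series), in triplicate. Plates were shaken at 175 rpm, 37° C, and OD600 was read every 30 min. MIC was the lowest concentration with no growth.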

[5] = tested on: E. coli BL21; experiment: MIC against Gram-negative bacteria: E. coli BL21
Outline: as §1

[6] = tested on: Pseudomonas aeruginosa; experiment: MIC against Gram-negative bacteria: Pseudomonas aeruginosa
Outline: as §1

[7] = tested on: Klebsiella pneumonia; experiment: MIC against Gram-negative bacteria: Klebsiella pneumonia
Outline: as §1

[8] = tested on: Citrobacter diversus; experiment: MIC against Gram-negative bacteria: Citrobacter diversus
Outline: as §1

[9] = tested on: Moraxella catarrhalis; experiment: MIC against Gram-negative bacteria: Moraxella catarrhalis
Outline: as §1

[10] = tested on: Enterobacter cloacae; experiment: MIC against Gram-negative bacteria: Enterobacter cloacae
Outline: as §1

[11] = tested on: Proteus vulgaris; experiment: MIC against Gram-negative bacteria: Proteus vulgaris
Outline: as §1

[12] = P. mirabilis, 10 h cultivation at 37° C.
[13] = A. hydrophila, 10 h cultivation at 37° C.
[14] = S. marcescens, 10 h cultivation at 37° C.
[15] = E. coli BL21, 10 h cultivation at 37° C.
[16] = P. aeruginosa, 10 h cultivation at 37° C.
[17] = K. pneumonia, 10 h cultivation at 37° C.
[18] = C. diversus, 10 h cultivation at 37° C.
[19] = M. catarrhalis, 10 h cultivation at 37° C.
[20] = E. cloacae, 10 h cultivation at 37° C.
[21] = P. vulgaris, 10 h cultivation at 37° C.
[22] = 96-well plate, 5×10^5 CFU/mL, 37° C., 10 h

## PRT928 (NIDNCDPDPCHHGQCQDGIDSYTCICNPGYMGAICS; listed as Homo sapiens)
[1]; [12]
  MIC: 12.5 µg/mL
[2]; [13]
  MIC: 12.5 µg/mL
[3]; [14]
  MIC: 25 µg/mL
[4]
  MIC: 25 µg/mL
[5]; [15]
  MIC: 12.5 µg/mL
[6]; [16]
  MIC: 25 µg/mL
[7]; [17]
  MIC: 12.5 µg/mL
[8]; [18]
  MIC: 25 µg/mL
[9]; [19]
  MIC: 12.5 µg/mL
[10]; [20]
  MIC: 25 µg/mL
[11]; [21]
  MIC: 25 µg/mL

## PRT910 (EIDECLSHPCQNGGTCLDLPNTYKCSCPRGTQGVHCE; listed as Homo sapiens)
[1]; [12]
  MIC: 25 µg/mL
[2]; [13]
  MIC: 12.5 µg/mL
[3]; [14]
  MIC: 25 µg/mL
[4]
  MIC: 50 µg/mL
[5]; [15]
  MIC: 25 µg/mL
[6]; [16]
  MIC: 12.5 µg/mL
[7]; [17]
  MIC: 25 µg/mL
[8]; [18]
  MIC: 25 µg/mL
[9]; [19]
  MIC: 12.5 µg/mL
[10]; [20]
  MIC: 50 µg/mL
[11]; [21]
  MIC: 25 µg/mL

## PRT1345 (NINECSSSPCLNKGICVDGVAGYRCTCVKGFVGLHCE; listed as Homo sapiens)
[1]; Proteus mirabilis, 5×10^5 CFU/mL, 10 h cultivation at 37° C.
  MIC against P. mirabilis: 12.5 µg/mL
[2]; Aeromonas hydrophila, 5×10^5 CFU/mL, 10 h cultivation at 37° C.
  MIC against A. hydrophila: 25 µg/mL
[3]; Serratia marcescens, 5×10^5 CFU/mL, 10 h cultivation at 37° C.
  MIC against S. marcescens: 50 µg/mL
[4]
  MIC: 12.5 µg/mL
[5]; E. coli BL21, 5×10^5 CFU/mL, 10 h cultivation at 37° C.
  MIC against E. coli BL21: 25 µg/mL
[6]; Pseudomonas aeruginosa, 5×10^5 CFU/mL, 10 h cultivation at 37° C.
  MIC against P. aeruginosa: 50 µg/mL
[7]; Klebsiella pneumonia, 5×10^5 CFU/mL, 10 h cultivation at 37° C.
  MIC against K. pneumonia: 25 µg/mL
[8]; Citrobacter diversus, 5×10^5 CFU/mL, 10 h cultivation at 37° C.
  MIC against C. diversus: 50 µg/mL
[9]; Moraxella catarrhalis, 5×10^5 CFU/mL, 10 h cultivation at 37° C.
  MIC against M. catarrhalis: 25 µg/mL
[10]; Enterobacter cloacae, 5×10^5 CFU/mL, 10 h cultivation at 37° C.
  MIC against E. cloacae: 12.5 µg/mL
[11]; Proteus vulgaris, 5×10^5 CFU/mL, 10 h cultivation at 37° C.
  MIC against P. vulgaris: 25 µg/mL

## PRT849 (CPCSAVTSTGSCSIKSSELEPECDQCKDGYIGPNCNKCENGYYNFDSICRK; listed as Homo sapiens)
[1]; P. mirabilis, 10 h cultivation at 37° C., 5×10^5 CFU/mL
  MIC (μg/mL) P. mirabilis: 12.5 µg/mL
[2]; A. hydrophila, 10 h cultivation at 37° C., 5×10^5 CFU/mL
  MIC (μg/mL) A. hydrophila: 25 µg/mL
[3]; S. marcescens, 10 h cultivation at 37° C., 5×10^5 CFU/mL
  MIC (μg/mL) S. marcescens: 25 µg/mL
[4]
  MIC: 12.5 µg/mL
[5]; E. coli BL21, 10 h cultivation at 37° C., 5×10^5 CFU/mL
  MIC (μg/mL) E. coli BL21: 12.5 µg/mL
[6]; P. aeruginosa, 10 h cultivation at 37° C., 5×10^5 CFU/mL
  MIC (μg/mL) P. aeruginosa: 12.5 µg/mL
[7]; K. pneumonia, 10 h cultivation at 37° C., 5×10^5 CFU/mL
  MIC (μg/mL) K. pneumonia: 12.5 µg/mL
[8]; C. diversus, 10 h cultivation at 37° C., 5×10^5 CFU/mL
  MIC (μg/mL) C. diversus: 12.5 µg/mL
[9]; M. catarrhalis, 10 h cultivation at 37° C., 5×10^5 CFU/mL
  MIC (μg/mL) M. catarrhalis: 25 µg/mL
[10]; E. cloacae, 10 h cultivation at 37° C., 5×10^5 CFU/mL
  MIC (μg/mL) E. cloacae: 12.5 µg/mL
[11]; P. vulgaris, 10 h cultivation at 37° C., 5×10^5 CFU/mL
  MIC (μg/mL) P. vulgaris: 12.5 µg/mL

## PRT559 (CHCSAEGSLHAACDPRSGQCSCRPRVTGLRCDTCVPGAYNFPYCEA; listed as Homo sapiens)
[1]; [22]
  MIC against P. mirabilis: 25 µg/mL
[2]; [22]
  MIC against A. hydrophila: 50 µg/mL
[3]; [22]
  MIC against S. marcescens: 25 µg/mL
[4]
  MIC: 25 µg/mL
[5]; [22]
  MIC against E. coli BL21: 50 µg/mL
[6]; [22]
  MIC against P. aeruginosa: 25 µg/mL
[7]; [22]
  MIC against K. pneumonia: 12.5 µg/mL
[8]; [22]
  MIC against C. diversus: 25 µg/mL
[9]; [22]
  MIC against M. catarrhalis: 12.5 µg/mL
[10]; [22]
  MIC against E. cloacae: 25 µg/mL
[11]; [22]
  MIC against P. vulgaris: 50 µg/mL
